According to patent US12653895B2, “Therapeutic conjugates” (Totus Medicines Inc., priority 2019, dated 2026):

Test system: PI3-kinase
Assay: NanoBRET screening of ARCS in transfected HEK293 cells with washout (covalent binding to and inhibition of PI3-kinase)
Assay type: cell-based
Conditions: NanoBRET binding assay; key headed Percent inhibition
Experimental: Human embryonic kidney 293-H (HEK 293, Gibco 293-H, #11631017) cell lines are maintained in Dulbecco's Modified Eagle Medium, high glucose, pyruvate (DMEM, Gibco, #11995065) supplemented with 10% fetal bovine serum (FBS, Gibco, #10082147) and 1× penicillin-streptomycin (100× solution, Gibco, #15140148) at 37° C. and 5% CO2 in a water-saturated incubator. Cell are trypsinized using 0.05% or 0.25% Trypsin-EDTA solution (Trypsin-EDTA, phenol red, Gibco, #25200056 (0.25%) or #25300054). Opti-MEM media supplemented with 10% fetal bovine serum (Opti-MEM I reduced serum media, no phenol red, Gibco, #11058021) is used for culturing cells overnight for NanoBRET readout experiments.
HEK293 cells are cultivated appropriately prior to assay. The medium from cell flask is removed via aspiration, washed 1× with PBS followed by aspiration, trypsinized, and cells are allowed to dissociate from the flask. Trypsin is neutralized using growth medium and cells are pelleted via centrifugation at 200×g for 5 minutes. The medium is aspirated and the cells are resuspended into a single cell suspension using Opti-MEM I supplemented with 10% FBS. The cell density is adjusted to 2×10^5/mL in Opti-MEM I supplemented with 10% FBS in a sterile, conical tube. The cells are transfected and aliquoted directly in a 96-well plate for the NanoBRET assay the next day, and therefore, the cells are cultured overnight in Opti-MEM. The cells are also transfected in bulk and dispensed into a 96-well plate to allow cells to adhere to the plate overnight, thereby enabling washout studies.
The lipid:DNA complexes are prepared as follows:
A 10 μg/mL solution of DNA is prepared in Opti-MEM without serum. This solution contains the following ratios of carrier DNA and DNA encoding NanoLuc fused to the biological target. Serial dilution steps may be warranted to accurately dilute the NanoLuc fusion DNA. Added, in order, the following reagents to a sterile polystyrene test tube: 1 mL of Opti-MEM without phenol red; 9.0 μg/mL of carrier DNA; 1.0 μg/mL of NanoLuc fusion DNA (for some targets, the amount is less). The reagents are mixed thoroughly.
30 μL of FuGENE HD is added into each mL of DNA mixture to form lipid:DNA complex. […] It is mixed by pipetting up and down 5-10 times and incubated at room temperature for 20 minutes to allow complexes to form. 1 part (e.g. 1 mL) of lipid:DNA complex is mixed with 20 parts (e.g. 20 mL) of HEK293 cells in suspension at 2×10^5/mL and mixed gently by pipetting up and down 5 times in a sterile, conical tube. Larger or smaller bulk transfections are scaled accordingly, using this ratio. […] is dispensed into a sterile, tissue-culture treated 96-well plate (20,000 cells/well), and incubated at least 16 hours to allow expression. The cells are incubated in a 37° C.+5% CO2 incubator for >16 hrs. A serially diluted inhibitor or test compound is prepared at 100× final concentration in 100% DMSO. The serially diluted inhibitor stock is prepared in PCR plates. 1 μL per well of 100× serially diluted inhibitor/test compound is added to the cells in 96-well plates that have been transiently transfected overnight and mixed by tapping the plate by hand. The plate is incubated at 37° C.+5% CO2 incubator overnight. A 1× solution of substrate mix (500× stock) and appropriate concentration of tracer is prepared in Opti-Mem. The cells are washed by setting a plate washer to the 96 well plate 5× in PBS pH 7.4 by adding 200 μL PBS each time. The cells are incubated at 37° C. for 2 hours. […], of the 1× Substrate-Tracer solution is added and the 96 well plate is gently tapped to mix. The plate on plate reader is read every hour for the next 6 hours. The binding assays of some ARCS are shown below. Compound 1-XXXII formed a covalent bond with PI3-kinase from about 5% to 20%. ARCS selected from the group consisting of Compounds 1-101, 1-102, 1-113, 1-114, 1-119, 1-120, 1-125 and 1-126 formed a covalent bond with PI3-kinase from about 80% to 100%. […]

Question: `COC(=O)Nc1cc(C(F)(F)F)c(-c2nc(N3CCOCC3)c3cc(CN4CCN(C(=O)CCC(=O)/C=C/CN(C)C)CC4)cn3n2)cn1` [Compound 1-119] was tested. Which Binding did it give?
Answer: +++ (>80%)

Question: `C=CC(=O)Nc1ccc(CCNCc2cc3c(N4CCOCC4)nc(-c4cnc(NC(=O)OC)cc4C(F)(F)F)nn3c2)cc1` [Compound 1-172] was tested. Which Binding did it give?
Answer: ++ (50-80%)

Question: For `C=CC(=O)CCC(=O)N1CCN(Cc2cc3c(N4CCOCC4)nc(-c4cnc(NC(=O)OC)cc4C(F)(F)F)nn3c2)CC1` [Compound 1-101], which Binding is on record?
Answer: +++ (>80%)

Question: How did the Binding turn out when `COC(=O)Nc1cc(C(F)(F)F)c(-c2nc(N3CCOCC3)c3cc(CN4CCN(C(=O)CNC(=O)C=C(C)C)CC4)cn3n2)cn1` [Compound 1-114] was run?
Answer: +++ (>80%)

Question: With `C=CC(=O)Nc1ccc(C(=O)N2CCN(Cc3cc4c(N5CCOCC5)nc(-c5cnc(NC(=O)OC)cc5C(F)(F)F)nn4c3)CC2)cc1` [Compound 1-171] as the molecule, how does the Binding read?
Answer: ++ (50-80%)

Question: How did the Binding turn out when `COC(=O)Nc1cc(C(F)(F)F)c(-c2nc(N3CCOCC3)c3cc(CN4CCN(C(=O)CCC(=O)C=C(C)C)CC4)cn3n2)cn1` [Compound 1-113] was run?
Answer: +++ (>80%)

Question: Which Binding does the source give for `C=CC(=O)NCC(=O)N1CCN(Cc2cc3c(N4CCOCC4)nc(-c4cnc(NC(=O)OC)cc4C(F)(F)F)nn3c2)CC1` [Compound 1-102] here?
Answer: +++ (>80%)

Question: With `CC#CC(=O)CCC(=O)N1CCN(Cc2cc3c(N4CCOCC4)nc(-c4cnc(NC(=O)OC)cc4C(F)(F)F)nn3c2)CC1` [Compound 1-125] as the molecule, how does the Binding read?
Answer: +++ (>80%)

Question: With `COC(=O)Nc1cc(C(F)(F)F)c(-c2nc(N3CCOCC3)c3cc(CN4CCN(C(=O)CNC(=O)/C=C/CN(C)C)CC4)cn3n2)cn1` [Compound 1-120] as the molecule, how does the Binding read?
Answer: +++ (>80%)

Question: Which Binding does the source give for `CC#CC(=O)NCC(=O)N1CCN(Cc2cc3c(N4CCOCC4)nc(-c4cnc(NC(=O)OC)cc4C(F)(F)F)nn3c2)CC1` [Compound 1-126] here?
Answer: +++ (>80%)
